# pIC50: −log10 of the molar value.
# Biological target: T1, Akt3 (Homo sapiens, UniProt Q9Y243)
# T1 construct: endogenous in cells; host or cells: primary human CD4+/CD45RA+/CD25- naive T cells
# Assay: Akt3 inhibition activity of selected compounds
# Type: cell-based
# Details: Table 1
# Procedure: (§1) Human CD4+/CD45RA+/CD25-naïve T cells were plated under induction conditions (IL-2/anti-CD3/anti-CD28+TGFβ) in the absence or presence of compounds for 72 hours. To determine the compounds' specificity for each phospho-AKT isoform, phospho-AKT cellular HTRF kits (Cisbio catalogue numbers 63ADK078PEG (pAKT1), 63ADK080PEG (p-AKT2), and 63ADK082PEG (pAKT3)) were used according to manufacturer specifications. Briefly, after removal of the supernatant, cells were lysed, and total protein concentration measured and normalized for all samples. The cell lysates were transferred into 384-well plates and Eu Cryptate antibody+d2 antibody mixture was added. This process was the same for each isoform but utilized the corresponding isoform antibodies from each respective kit. Positive and negative controls (supplied with the kit) were incorporated into each experiment. The plates were incubated overnight. Data acquisition was performed on the Varioskan Lux reader utilizing the settings for the TRF fluorescence protocol. Data was presented as percent change over DMSO-treated controls. Each test condition was run in duplicate, and the assay was performed at least twice.
# T1 sequence (Q9Y243 whole entry): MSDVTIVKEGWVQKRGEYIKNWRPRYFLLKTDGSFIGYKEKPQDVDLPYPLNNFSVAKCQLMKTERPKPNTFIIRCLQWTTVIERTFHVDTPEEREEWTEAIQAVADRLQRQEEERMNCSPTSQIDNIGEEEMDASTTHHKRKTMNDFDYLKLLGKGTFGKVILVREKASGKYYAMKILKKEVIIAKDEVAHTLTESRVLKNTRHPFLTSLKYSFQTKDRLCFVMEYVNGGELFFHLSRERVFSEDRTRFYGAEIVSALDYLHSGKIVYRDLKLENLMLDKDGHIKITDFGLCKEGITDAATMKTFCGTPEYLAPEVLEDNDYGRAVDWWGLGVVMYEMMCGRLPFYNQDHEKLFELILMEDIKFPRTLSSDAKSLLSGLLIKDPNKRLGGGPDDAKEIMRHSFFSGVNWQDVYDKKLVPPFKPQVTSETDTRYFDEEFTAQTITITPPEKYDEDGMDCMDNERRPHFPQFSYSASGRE
row,pIC50,Structure (SMILES)
1,> 6.00,"N#Cc1cc(Nc2cccc(NC(=O)c3cccc(Nc4ccnc5ccc(F)cc45)c3)c2)ccn1 [Compound 113, N-(3-(2-cyanopyridin-4-ylamino)phenyl)-3-(6-fluoroquinolin-4-ylamino)benzamide]"
2,> 5.30,"Cc1c(Nc2cccc(C(=O)Nc3cc(Nc4ccncc4)ccn3)c2)ccnc1N [Compound 127, 3-(2-amino-3-methylpyridin-4-ylamino)-N-(4-(pyridin-4-ylamino)pyridin-2-yl)benzamide]"
3,> 5.30,"Cc1cc(Nc2cccc(C(=O)Nc3cc(Nc4ccncc4)ccn3)c2)cc(N)n1 [Compound 125, 3-(2-amino-6-methylpyridin-4-ylamino)-N-(4-(pyridin-4-ylamino)pyridin-2-yl)benzamide]"
4,> 6.00,"O=C(Nc1cc(Nc2ccncc2)ccn1)c1cccc(Nc2ccnc3ccccc23)c1 [Compound 38, N-(4-(pyridin-4-ylamino)pyridin-2-yl)-3-(quinolin-4-ylamino)benzamide]"
5,> 6.30,"O=C1c2ccc(Nc3ccncc3)cc2CN1c1cccc(Nc2ccncc2)c1 [Compound 110, 5-(pyridin-4-ylamino)-2-(3-(pyridin-4-ylamino)phenyl)isoindolin-1-one]"
6,> 6.30,"O=C(Nc1cccc(Oc2ccncc2)c1)c1cccc(Nc2ccnc3ccc(F)cc23)c1 [Compound 10, 3-((6-fluoroquinolin-4-yl)amino)-N-(3-(pyridin-4-yloxy)phenyl)benzamide]"
7,> 6.00,"O=C1c2ccc(Nc3ccncc3)cc2CN1c1cccc(NC2CCCC2)c1 [Compound 132, 2-(3-(cyclopentylamino)phenyl)-5-(pyridin-4-ylamino)isoindolin-1-one]"
8,> 5.30,"O=C(Nc1cc(Oc2ccccc2)ccn1)c1cccc(Nc2ccncc2)c1 [Compound 107, N-(4-phenoxypyridin-2-yl)-3-(pyridin-4-ylamino)benzamide]"
9,> 6.30,"Cc1cc(Nc2ccc3c(c2)CN(c2cccc(Nc4cccc(F)c4)c2)C3=O)ccn1 [Compound 118, 2-(3-(3-fluorophenylamino)phenyl)-5-(2-methylpyridin-4-ylamino)isoindolin-1-one]"
10,> 5.70,"Cc1nccc(Nc2ccc3c(c2)CN(c2cccc(Nc4ccncc4)c2)C3=O)c1Cl [Compound 119, 5-(3-chloro-2-methylpyridin-4-ylamino)-2-(3-(pyridin-4-ylamino)phenyl)isoindolin-1-one]"
11,> 5.30,"O=C(Nc1cccc(Nc2ccncc2)n1)c1cccc(Nc2ccncc2)c1 [Compound 108, 3-(pyridin-4-ylamino)-N-(6-(pyridin-4-ylamino)pyridin-2-yl)benzamide]"
12,> 5.30,"O=C(Nc1cccc(Nc2ccccc2)c1)c1cccc(Nc2ccncc2)c1 [Compound 97, N-(3-(phenylamino)phenyl)-3-(pyridin-4-ylamino)benzamide]"
13,> 6.00,"Cc1cc(Nc2ccc3c(c2)CN(c2cccc(Nc4ccncc4)c2)C3=O)ccn1 [Compound 114, 5-(2-methylpyridin-4-ylamino)-2-(3-(pyridin-4-ylamino)phenyl)isoindolin-1-one]"
14,> 6.00,"[N-]=[N+]=Nc1ccc2nccc(Nc3cccc(C(=O)Nc4cccc(Nc5ccncc5)c4)c3)c2c1 [Compound 5, 3-((6-azidoquinolin-4-yl)amino)-N-(3-(pyridin-4-ylamino)phenyl)benzamide]"

# Second part, the compound before the results:
row,Structure (SMILES),pIC50
1,"O=C(Nc1cccc(Nc2ccncc2)n1)c1cccc(Nc2ccnc3ccc(F)cc23)c1 [Compound 21, 3-((6-fluoroquinolin-4-yl)amino)-N-(6-(pyridin-4-ylamino)pyridin-2-yl)benzamide]",> 5.70
2,"Nc1cc(Nc2cccc(C(=O)Nc3cc(Nc4ccncc4)ccn3)c2)ccn1 [Compound 128, 3-(2-aminopyridin-4-ylamino)-N-(4-(pyridin-4-ylamino)pyridin-2-yl)benzamide]",> 5.30
3,"C#Cc1ccc2nccc(Nc3cccc(C(=O)Nc4cccc(Nc5ccncc5)c4)c3)c2c1 [Compound 4, 3-((6-ethynylquinolin-4-yl)amino)-N-(3-(pyridin-4-ylamino)phenyl)benzamide]",> 6.00
4,"Cc1cc(Nc2cccc(C(=O)Nc3cccc(Nc4ccccc4)c3)c2)cc(N)n1 [Compound 131, 3-(2-amino-6-methylpyridin-4-ylamino)-N-(3-(phenylamino)phenyl)benzamide]",> 5.00
5,"Cc1cc(Nc2cccc(C(=O)Nc3cccc(Nc4ccccc4)c3)c2)ccn1 [Compound 99, 3-((2-methylpyridin-4-yl)amino)-N-(3-(phenylamino)phenyl)benzamide]",> 5.70
6,"Cc1cc(Nc2cccc(C(=O)Nc3cccc(Nc4ccccc4)c3)c2)ccn1 [Compound 109, 3-((2-methylpyridin-4-yl)amino)-N-(3-(phenylamino)phenyl)benzamide]",> 6.00
7,"O=C(c1cccc(Nc2ccnc3ccc(F)cc23)c1)N1CCc2c(Nc3ccncc3)cccc21 [Compound 67, (3-((6-fluoroquinolin-4-yl)amino)phenyl)(4-(pyridin-4-ylamino)indolin-1-yl)methanone]",> 5.70
8,"N#Cc1nccc(Nc2cccc(NC(=O)c3cccc(Nc4ccnc5ccc(F)cc45)c3)c2)c1C(F)(F)F [Compound 112, N-(3-(2-cyano-3-(trifluoromethyl)pyridin-4-ylamino)phenyl)-3-(6-fluoroquinolin-4-ylamino)benzamide]",> 5.30
9,"O=C(Nc1cc(Nc2ccncc2)ccn1)c1cccc(Nc2cccc3ncccc23)c1 [Compound 126, N-(4-(pyridin-4-ylamino)pyridin-2-yl)-3-(quinolin-5-ylamino)benzamide]",> 6.00
10,"Nc1cc(Nc2cccc(C(=O)Nc3cccc(Nc4ccccc4)c3)c2)ccn1 [Compound 130, 3-(2-aminopyridin-4-ylamino)-N-(3-(phenylamino)phenyl)benzamide]",> 6.00
11,"Cc1c(Nc2cccc(C(=O)Nc3cccc(Nc4ccccc4)c3)c2)ccnc1N [Compound 129, 3-(2-amino-3-methylpyridin-4-ylamino)-N-(3-(phenylamino)phenyl)benzamide]",> 5.30
12,"Cc1cc(Nc2ccc3c(c2)CN(c2cccc(Nc4ccc(F)cc4)c2)C3=O)ccn1 [Compound 120, 2-(3-(4-fluorophenylamino)phenyl)-5-(2-methylpyridin-4-ylamino)isoindolin-1-one]",> 7.00

# Biological target: T1, Akt3
# Assay: Akt3 activation activity of selected compounds
# Type: cell-based
# Details: Table 2
# Procedure: as §1
row,pIC50,Structure (SMILES)
1,> 5.30,"N#Cc1ccc2nccc(Nc3cccc(C(=O)Nc4cc(Nc5ccncc5)ccn4)c3)c2c1 [Compound 26, 3-((6-cyanoquinolin-4-yl)amino)-N-(4-(pyridin-4-ylamino)pyridin-2-yl)benzamide]"
2,> 5.30,"CS(=O)(=O)c1ccc2nccc(Nc3cccc(C(=O)Nc4cccc(Nc5ccncc5)c4)c3)c2c1 [Compound 3, 3-((6-(methylsulfonyl)quinolin-4-yl)amino)-N-(3-(pyridin-4-ylamino)phenyl)benzamide]"
3,> 6.00,"Cc1cc(Nc2ccnc(NC(=O)c3cccc(Nc4ccnc5ccc(N(C)C)cc45)c3)c2)ccn1 [Compound 61, 3-((6-(dimethylamino)quinolin-4-yl)amino)-N-(4-((2-methylpyridin-4-yl)amino)pyridin-2-yl)benzamide]"
4,> 5.70,"Cc1cc(Oc2cccc(NC(=O)c3cncc(Nc4ccnc5ccc(N(C)C)cc45)c3)c2)ccn1 [Compound 65, 5-((6-(dimethylamino)quinolin-4-yl)amino)-N-(3-((2-methylpyridin-4-yl)oxy)phenyl)nicotinamide]"

# The next lines start with the compound.
row,Structure (SMILES),pIC50
1,"Cc1cc(Nc2cccc(NC(=O)c3cccc(Nc4ccnc5ccc(N(C)C)cc45)c3)c2)ccn1 [Compound 59, 3-((6-(dimethylamino)quinolin-4-yl)amino)-N-(3-((2-methylpyridin-4-yl)amino)phenyl)benzamide]",> 6.00
2,"N#Cc1ccc2nccc(Nc3cccc(-c4nc5ccc(Nc6ccncc6)nc5[nH]4)c3)c2c1 [Compound 106, 4-((3-(5-(pyridin-4-ylamino)-3H-imidazo[4,5-b]pyridin-2-yl)phenyl)amino)quinoline-6-carbonitrile]",> 5.70
3,"N#Cc1ccc2nccc(Nc3cccc(C(=O)Nc4cccc(Nc5ccncc5)c4)c3)c2c1 [Compound 6, 3-((6-cyanoquinolin-4-yl)amino)-N-(3-(pyridin-4-ylamino)phenyl)benzamide]",> 5.70
4,"CN(C)c1ccc2nccc(Nc3cccc(C(=O)Nc4cccc(Nc5ccncc5)c4)c3)c2c1 [Compound 31, 3-((6-(dimethylamino)quinolin-4-yl)amino)-N-(3-(pyridin-4-ylamino)phenyl)benzamide]",> 6.00
